Measured values reported in patent US12534472B2, “Morphic forms of trilaciclib and methods of manufacture thereof” (Pharmacosmos Holding A/S, priority 2020, dated 2026).
Entries after “also recorded” stand apart in the source; their conditions may differ.

How the values were obtained:
Type in all cases: physicochemical
[1] = Dynamic Vapor Sorption (DVS)
Description: Approximately, 10-20 mg of sample was placed into a mesh vapor sorption balance pan and loaded into a DVS Intrinsic dynamic vapor sorption balance by Surface Measurement Systems. The sample was subjected to a ramping profile from 40-90% relative humidity (RH) at 10% increments, maintaining the sample at each step until a stable weight had been achieved (dm/dt 0.004%, minimum step length 30 minutes, maximum step length 500 minutes) at 25° C. After completion of the sorption cycle, the sample was dried using the same procedure to 0% RH and then a second sorption cycle back to 40% RH. Two cycles were performed. The weight change during the sorption/desorption cycles were plotted, allowing for the hygroscopic nature of the sample to be determined. XRPD analysis was then carried out on any solid retained. The above technique was used to generate the images in FIG. 5, FIG. 6, FIG. 47 and FIG. 48.

[2] = Competitive slurry experiments
Description: Competitive slurry experiments were carried out using ca. 10 mg of Pattern 1, Pattern 2/6 mixture and Pattern 3 were weighed out and added to a 1.5 mL glass vial. Samples were prepared using 100 μL aliquots of solvent until a mobile slurry was formed. Samples were stirred at ambient temperature for 48 hours. A second set of samples were stirred at 60° C. for 48 hours. All samples were collected, and the solids were isolated and analyzed by XRPD. The above technique was used to generate the images in FIG. 50, FIG. 51, and FIG. 55 through FIG. 59.

[3] = Gravimetric Vapor Sorption (GVS); settings: 25° C.
Description: Approximately 10-20 mg of sample was placed into a mesh vapor sorption balance pan and loaded into an IGASorp Moisture Sorption Analyzer balance by Hiden Analytical. The sample was subjected to a ramping profile from 40-90% relative humidity (RH) at 10% increments, maintaining the sample at each step until a stable weight had been achieved (98% step completion, minimum step length 30 minutes, maximum step length 60 minutes) at 25° C. After completion of the sorption cycle, the sample was dried using the same procedure to 0% RH, and finally taken back to the starting point of 40% RH. Three cycles were performed. The weight change during the sorption/desorption cycles were plotted, allowing for the hygroscopic nature of the sample to be determined. The above technique was used to generate the images in FIG. 40 and FIG. 41.

[4] = Thermodynamic solubility in water at pH 4.2
Description: Thermodynamic solubility was carried out for Pattern 1, Pattern 2/6 mixture, Pattern 3, amorphous di-HCl salts and Pattern 7 in water at pH 4.2. All samples were prepared at 30 mg/mL. Initial observations were made. The samples were agitated at ambient temperature for ca. 24 hours. The samples were collected and observations made. Observed solids were isolated via centrifugation. The mother liquor from the filtered sample was analyzed by HPLC. The pH 4.3 solution was prepared by diluting glacial acetic acid (11.6 mL) to 100 mL in deionized water, then adding sodium acetate (1.07 g) and acetic acid solution (5.9 mL) preparing up to 500 mL with deionized water; then the pH was adjusted to 4.2. The above technique was used to generate the images in FIG. 60.

## CN1CCN(c2ccc(Nc3ncc4cc5n(c4n3)C3(CCCCC3)CNC5=O)nc2)CC1 [Pattern 1, 2′-((5-(4-methylpiperazin-1-yl)pyridin-2-yl)amino)-7′,8′-dihydro-6′H-spiro[cyclohexane-1,9′-pyrazino[1′,2′:1,5]pyrrolo[2,3-d]pyrimidin]-6′-one]
[1]; at 40% RH
  moisture adsorbed (DVS): 3.00 wt %
[1]; at 90% RH
  moisture adsorbed (DVS): 4.00 wt %
[1]; between 0% and 90% RH
  mass increase by DVS: 4%
[1]; dried sample at the conclusion of the DVS experiment
  XRPD analysis post-DVS (form stability): confirmed Pattern 1; also recorded: no change
[2]
  stability compared to other morphic forms: superior stability
[3]; Cycle 1, desorption, target RH 0%
  Change in Mass (%)-ref Desorption: 0.180%
[3]; Cycle 1, desorption, target RH 10%
  Change in Mass (%)-ref Desorption: 2.320%
[3]; Cycle 1, desorption, target RH 20%
  Change in Mass (%)-ref Desorption: 2.820%
[3]; Cycle 1, desorption, target RH 30%
  Change in Mass (%)-ref Desorption: 3.110%
[3]; Cycle 1, desorption, target RH 40%
  Change in Mass (%)-ref Desorption: 3.340%
[3]; Cycle 1, desorption, target RH 50%
  Change in Mass (%)-ref Desorption: 3.580%
[3]; Cycle 1, desorption, target RH 60%
  Change in Mass (%)-ref Desorption: 3.730%
[3]; Cycle 1, desorption, target RH 70%
  Change in Mass (%)-ref Desorption: 3.820%
[3]; Cycle 1, desorption, target RH 80%
  Change in Mass (%)-ref Desorption: 3.970%
[3]; Cycle 1, desorption, target RH 90%
  Change in Mass (%)-ref Desorption: 4.160%
[3]; Cycle 1, sorption, target RH 40%
  Change in Mass (%)-ref Sorption: 3.420%
[3]; Cycle 1, sorption, target RH 50%
  Change in Mass (%)-ref Sorption: 3.560%
[3]; Cycle 1, sorption, target RH 60%
  Change in Mass (%)-ref Sorption: 3.720%
[3]; Cycle 1, sorption, target RH 70%
  Change in Mass (%)-ref Sorption: 3.800%
[3]; Cycle 1, sorption, target RH 80%
  Change in Mass (%)-ref Sorption: 3.920%
[3]; Cycle 1, sorption, target RH 90%
  Change in Mass (%)-ref Sorption: 4.160%
[3]; Cycle 2, desorption, target RH 0%
  Change in Mass (%)-ref Desorption: 0.000%
[3]; Cycle 2, desorption, target RH 10%
  Change in Mass (%)-ref Desorption: 2.240%
[3]; Cycle 2, desorption, target RH 20%
  Change in Mass (%)-ref Desorption: 2.680%
[3]; Cycle 2, desorption, target RH 30%
  Change in Mass (%)-ref Desorption: 3.020%
[3]; Cycle 2, desorption, target RH 40%
  Change in Mass (%)-ref Desorption: 3.260%
[3]; Cycle 2, desorption, target RH 50%
  Change in Mass (%)-ref Desorption: 3.500%
[3]; Cycle 2, desorption, target RH 60%
  Change in Mass (%)-ref Desorption: 3.670%
[3]; Cycle 2, desorption, target RH 70%
  Change in Mass (%)-ref Desorption: 3.780%
[3]; Cycle 2, desorption, target RH 80%
  Change in Mass (%)-ref Desorption: 3.890%
[3]; Cycle 2, desorption, target RH 90%
  Change in Mass (%)-ref Desorption: 4.080%
[3]; Cycle 2, sorption, target RH 0%
  Change in Mass (%)-ref Sorption: 0.180%
[3]; Cycle 2, sorption, target RH 10%
  Change in Mass (%)-ref Sorption: 2.300%
[3]; Cycle 2, sorption, target RH 20%
  Change in Mass (%)-ref Sorption: 2.770%
[3]; Cycle 2, sorption, target RH 30%
  Change in Mass (%)-ref Sorption: 3.030%
[3]; Cycle 2, sorption, target RH 40%
  Change in Mass (%)-ref Sorption: 3.290%
[3]; Cycle 2, sorption, target RH 50%
  Change in Mass (%)-ref Sorption: 3.470%
[3]; Cycle 2, sorption, target RH 60%
  Change in Mass (%)-ref Sorption: 3.660%
[3]; Cycle 2, sorption, target RH 70%
  Change in Mass (%)-ref Sorption: 3.780%
[3]; Cycle 2, sorption, target RH 80%
  Change in Mass (%)-ref Sorption: 3.900%
[3]; Cycle 2, sorption, target RH 90%
  Change in Mass (%)-ref Sorption: 4.080%
[3]; Cycle 3, sorption, target RH 0%
  Change in Mass (%)-ref Sorption: 0.000%
[3]; Cycle 3, sorption, target RH 10%
  Change in Mass (%)-ref Sorption: 2.250%
[3]; Cycle 3, sorption, target RH 20%
  Change in Mass (%)-ref Sorption: 2.740%
[3]; Cycle 3, sorption, target RH 30%
  Change in Mass (%)-ref Sorption: 3.020%
[3]; Cycle 3, sorption, target RH 40%
  Change in Mass (%)-ref Sorption: 3.220%
[4]; 30 mg/mL in water at pH 4.2, agitated at ambient temperature ca. 24 hours
  Observations at T = 24 hours: Yellow solution
[4]; 30 mg/mL in water at pH 4.2, ambient temperature, T = 0 hours
  Observations at T = 0 hours: Yellow slurry
